In patent publication US8067189B2, “Methods for determining sensitivity to vascular endothelial growth factor receptor-2 modulators by measuring the level of collagen type IV” (Bristol-Myers Squibb Company, priority 2005, dated 2011):

Experiments:
Collagen type IV = assay: ELISA of blood samples from tumor bearing mice; format: in vivo, mouse; conditions: 100 mg/kg 1 qd×14 days
Procedure: (§1) Tumors were propagated in nude mice as subcutaneous (sc) transplants using L2987 and HCT-116 cancer cell lines. Tumor passage occurred approximately every two to four weeks. Tumors were then allowed to grow to the pre-determined size window (100-200 mm^3, tumors outside the range were excluded) and animals were evenly distributed to various treatment and control groups. Animals were treated with the example VEGFR-2 inhibitor (100 mg/kg 1 qd×14 days). Treated animals were checked daily for treatment related toxicity/mortality. Each group of animals was weighed before the initiation of treatment (Wt1) and then again following the last treatment dose (Wt2). […] Tumor response was determined by measurement of tumors with a caliper twice a week, until the tumors reached a predetermined target size. […]
(§2) An ELISA method for the detection and measurement of Collagen Type IV and VE-Cadherin on human plasma or any biological sample where the proteins must be detected and measured is described. […] The reaction was terminated by addition of acid and absorbance was measured at 450 nm. A standard curve was prepared from collagen type IV standard dilutions and collagen type IV samples concentration determined. […] The reaction was terminated by addition of acid and absorbance was measured at 450 nm. A standard curve was prepared from VE-cadherin standard dilutions and VE-cadherin samples concentration determined. […]

VE-Cadherin = assay: ELISA of blood samples from tumor bearing mice; format: in vivo, mouse; conditions: 100 mg/kg 1 qd×14 days
Procedure: as §1, §2

[1] = test system: VEGFR-2 co-expressed biomarkers (mRNA levels in xenograft tumors); assay: Gene expression profiling (Affymetrix mouse 430A arrays) of un-treated vs treated xenograft tumors; format: in vivo
Procedure: Tumors were propagated in nude mice as subcutaneous (sc) transplants using L2987 and HCT-116 cancer cell lines. Tumor passage occurred approximately every two to four weeks. Tumors were then allowed to grow to the pre-determined size window (100-200 mm^3, tumors outside the range were excluded) and animals were evenly distributed to various treatment and control groups. Animals were treated with the example VEGFR-2 inhibitor (100 mg/kg 1 qd×14 days). Treated animals were checked daily for treatment related toxicity/mortality. Each group of animals was weighed before the initiation of treatment (Wt1) and then again following the last treatment dose (Wt2). The difference in body weight (Wt2−Wt1) provided a measure of treatment-related toxicity. Tumor response was determined by measurement of tumors with a caliper twice a week, until the tumors reached a predetermined target size. Animals that were distributed to various treatment and control groups during the study were eventually sacrificed to obtain tumor and blood samples for genomic and protein analysis.
The colon tumor samples obtained from cancer patients were snap frozen in liquid nitrogen within 20 minutes of resection and stored thereafter at −80° C. The mouse xenograft tumor samples were split into two halves. One half was mixed in a vial of 10% formalin to be used for IHC and the other half was mixed in 1.0 ml of RNAlater™ RNA Stabilization Reagent (Ambion, Inc., Austin, Tex.) held at room temperature for 30 minutes then stored at −80° C. Total RNA was extracted from the tumor samples using the RNeasy Kit™ (Qiagen, Valencia Calif.). At least 1 μg total RNA with a 260/280 ratio ≧1.8 by spectrophotometry (DU640 UV, Beckman Coulter, Fullerton, Calif.) was required for transcriptional profiling. Briefly, the tumor samples were homogenized in a lysis-binding solution supplied by Qiagen. An equal volume of ethanol was mixed into each sample, the mixture was passed through the filter cartridges provided, and the rest of the extraction protocol was followed (Ambion). RNA yield and quality were assessed on a standard 1% agarose gel. A ratio 28 s/18 s RNA in the range of 1.5 to 2.5 indicated high quality RNA that is free of degradation. RNA samples were stored at −80° C.
Transcriptional profiling was performed on the RNA obtained from the tumor samples. The Affymetrix GeneChip system (Affymetrix, Santa Clara, Calif.) was used for hybridization and scanning of the human U133A and mouse 430A arrays. Data were preprocessed using the MAS 5.0 software. Generation of cRNA followed a standard T7 amplification protocol. Total RNA was reverse-transcribed with SuperScript II (Gibco, Carlsbad, Calif.) in the presence of T7-(dT)24 primer to generate first strand cDNA. A second-strand cDNA synthesis was performed in the presence of DNA Polymerase I, DNA ligase, and RNase H (Gibco). The resulting double-stranded cDNA was blunt-ended using T4 DNA polymerase. This double-stranded cDNA was then transcribed into cRNA in the presence of biotin-ribonucleotides using the BioArray High Yield RNA transcript labeling kit (Enzo Life Sciences, Farmingdale, N.Y.). The amplified, biotin-labeled cRNA was purified using Qiagen RNeasy columns (Qiagen Sciences), quantified and fragmented at 94° C. for 35 minutes in the presence of fragmentation buffer (1×). Fragmented cRNA was hybridized to the Affymetrix U113A and 430A arrays overnight at 42° C. The arrays were then placed in the fluidics stations for staining and washing as recommended by Affymetrix protocols. The chips were scanned and raw intensity values were generated for each probe on the arrays.
The 94 co-expressed VEGFR-2 genes identified from human cancers profiled on U133A arrays were used to identify their corresponding mouse homolog from mouse xenografts tumors profiled on mouse 430A arrays. […]

Cc1cc2c(F)c(Oc3ncnn4cc(OC[C@@H](C)OC(=O)[C@H](C)N)c(C)c34)ccc2[nH]1 [example VEGFR-2 inhibitor, [(1R),2S]-2-Aminopropionic acid 2-[4-(4-fluoro-2-methyl-1H-indol-5-yloxy)-5-methylpyrrolo[2,1-f][1,2,4]triazin-6-yloxy]-1-methylethyl ester]
amount of Collagen type IV protein detected in the blood following treatment (Collagen type IV): decreased to levels observed in the healthy mice bearing no tumors | amount of VE-Cadherin protein detected in the blood following treatment (VE-Cadherin): decreased to levels observed in the healthy mice bearing no tumors | fold-change mRNA, Tie1 ([1]; mouse 430A probe 1416238_at, 100 mg/kg 1 qd×14 days, t-test P 0.00103262): 11 | fold-change mRNA, endoglin (Eng) ([1]; mouse 430A probe 1417271_a_at, 100 mg/kg 1 qd×14 days, t-test P 0.021873085): 2 | fold-change mRNA, Prg1 ([1]; mouse 430A probe 1417426_at, 100 mg/kg 1 qd×14 days, t-test P 0.034821585): 2 | fold-change mRNA, Eltd1 ([1]; mouse 430A probe 1418059_at, 100 mg/kg 1 qd×14 days, t-test P 0.018655985): 2 | direction of change in mRNA levels, Tek ([1]; mouse 430A probe 1418788_at): no | fold-change mRNA, Tek ([1]; mouse 430A probe 1418788_at, 100 mg/kg 1 qd×14 days, t-test P 0.047098006): 1 | direction of change in mRNA levels, S100a8 ([1]; mouse 430A probe 1419394_s_at): no | fold-change mRNA, S100a8 ([1]; mouse 430A probe 1419394_s_at, 100 mg/kg 1 qd×14 days, t-test P 0.040857487): 1 | fold-change mRNA, C1qr1 (Ly68) ([1]; mouse 430A probe 1419589_at, 100 mg/kg 1 qd×14 days, t-test P 0.000005): 5 | fold-change mRNA, Agtrl1 ([1]; mouse 430A probe 1423037_at, 100 mg/kg 1 qd×14 days, t-test P 5.54812E−04): 4 | fold-change mRNA, nidogen 2 (Nid2) ([1]; mouse 430A probe 1423516_a_at, 100 mg/kg 1 qd×14 days, t-test P 0.024126268): 3 | direction of change in mRNA levels, Col16a1 ([1]; mouse 430A probe 1427986_a_at): no | fold-change mRNA, Col4a1 ([1]; mouse 430A probe 1427986_a_at, 100 mg/kg 1 qd×14 days, t-test P 0.000014): 4 | fold-change mRNA, Col16a1 ([1]; mouse 430A probe 1427986_a_at, 100 mg/kg 1 qd×14 days, t-test P 0.014896833): 1 | fold-change mRNA, VE-Cadherin (Cdh5) ([1]; mouse 430A probe 1433956_at, 100 mg/kg 1 qd×14 days, t-test P 0.001154369): 2 | direction of change in mRNA levels, Pkig ([1]; mouse 430A probe 1434820_s_at): no | fold-change mRNA, Pkig ([1]; mouse 430A probe 1434820_s_at, 100 mg/kg 1 qd×14 days, t-test P 0.032286798): 1 | fold-change mRNA, Agtrl1 ([1]; mouse 430A probe 1438651_a_at, 100 mg/kg 1 qd×14 days, t-test P 0.026038828): 2 | fold-change mRNA, Gng11 ([1]; mouse 430A probe 1448942_at, 100 mg/kg 1 qd×14 days, t-test P 0.001326667): 2 | direction of change in mRNA levels, Cav1 ([1]; mouse 430A probe 1449145_a_at): no | fold-change mRNA, Cav1 ([1]; mouse 430A probe 1449145_a_at, 100 mg/kg 1 qd×14 days, t-test P 2.72030E−04): 1 | direction of change in mRNA levels, Pde1a ([1]; mouse 430A probe 1449298_a_at): no | fold-change mRNA, Pde1a ([1]; mouse 430A probe 1449298_a_at, 100 mg/kg 1 qd×14 days, t-test P 0.025570996): 1 | fold-change mRNA, Col4a1 ([1]; mouse 430A probe 1452035_at, 100 mg/kg 1 qd×14 days, t-test P 0.000018): 6
